Experimental data as given in patent US6479499B1.
In brackets after ≈: the same amount, converted by molar mass. Where two headings read alike, the source gives them in different places.

Columns and labels:
[1] = tested on: platelet aggregation induced by arachidonic acid (AA); experiment: Antiplatelet assay, arachidonic acid-induced aggregation; type: cell-based, rabbit; conditions: for IC50 / Percent aggregation, AA: AA 100 μM
Procedure: (§1) c. Antiplatelet assay. Blood, collected from the marginal ear vein of rabbits was mixed with EDTA to a final concentration of 6 mM and centrifuged at 90 g for 10 mm at room temperature to obtain platelet-rich plasma. The latter was further centrifuged at 500 g for 10 mm and the platelets were washed with Tyrode's solution without EDTA. After centrifugation at the same conditions, the platelets were suspended in Tyrode's solution with the following compositions (mM): NaCl (136.8), KCl (2.8), NaNCO3(11.9), MgCl2(1.1), NaH2PO4(0.33), CaCl2(1.0), and glucose (11.2). Platelet numbers were determined with a Coulter Counter (Model ZM) and adjusted to 4.5×10^8 platelets/ml.
(§2) Aggregation was measured by the turbidimetric method [O'brien, J. R. J. Clin. Pathol. 1962, 15,452] with a dual-channel Lumi aggregometer (Model 1020, Payton, Canada). All glass ware was siliconized. Test compounds were added one minute before the addition of the aggregation inducer and the platelet suspension was stirred at 900 rpm. The percentage of aggregation was calculated as previously described [Teng, C. M.; Chen, W. Y.; Ko, W. C.; Ouyang, C. Biochem. Biophys. Acta. 1987, 924, 375].

[2] = tested on: human ovarian cancer (1A9); experiment: In vitro cytotoxicity, 1A9; conditions: 96 h, read-out: ED50 1A9
[3] = tested on: prostate cancer (PC3); experiment: In vitro cytotoxicity, PC3; conditions: Homo sapiens; for IC50: 96 h, read-out: ED50 PC3; for inhibition at 20 µg/mL: read-out: Inhibition at highest test concentration (in brackets), PC3
[4] = tested on: lung carcinoma (A-549); experiment: In vitro cytotoxicity, A-549; conditions: Homo sapiens; for IC50: A549, 96 h, read-out: ED50 A-549; for inhibition at 20 µg/mL: A549, read-out: Inhibition at highest test concentration (in brackets), A-549
[5] = tested on: melanoma (SKMEL-2); experiment: In vitro cytotoxicity, SKMEL-2; conditions: for IC50 / inhibition at 20 µg/mL: Homo sapiens; for IC50: SK-MEL-2, 96 h, read-out: ED50 SKMEL-2; for Inhibition value of plateau-dose response (in brackets), SKMEL-2: inhibition plateaus over broad dose range; for inhibition at 20 µg/mL: SK-MEL-2, read-out: Inhibition at highest test concentration (in brackets), SKMEL-2
[6] = tested on: P-gp-expressing epidermoid carcinoma of the nasopharynx (KB-VIN); experiment: In vitro cytotoxicity, KB-VIN; conditions: Homo sapiens, KBVIN; for IC50: 96 h, read-out: ED50 KB-VIN
[7] = tested on: bovine brain tubulin; experiment: Tubulin polymerization assay (antimicrotubule assay); conditions: read-out: ITP (inhibition of tubulin polymerization) IC50; tubulin […] (12 μM), 26° C., 20 min
[8] = tested on: epidermoid carcinoma of the nasopharynx (KB); experiment: In vitro cytotoxicity, KB; conditions: Homo sapiens; for IC50: 96 h, read-out: ED50 KB; for inhibition at 20 µg/mL: read-out: Inhibition at highest test concentration (in brackets), KB
[9] = tested on: ileocecal carcinoma (HCT-8); experiment: In vitro cytotoxicity, HCT-8; conditions: Homo sapiens; for IC50: HCT-8, 96 h, read-out: ED50 HCT-8; for inhibition at 20 µg/mL: HCT-8, read-out: Inhibition at highest test concentration (in brackets), HCT-8
[10] = tested on: bone (HOS); experiment: In vitro cytotoxicity, HOS; conditions: Homo sapiens; for IC50: 96 h, read-out: ED50 HOS; for inhibition at 20 µg/mL: read-out: Inhibition at highest test concentration (in brackets), HOS
[11] = tested on: breast cancer (MCF-7); experiment: In vitro cytotoxicity, MCF-7; conditions: Homo sapiens; for IC50: MCF7, 96 h, read-out: ED50 MCF-7; for inhibition at 20 µg/mL: MCF7, read-out: Inhibition at highest test concentration (in brackets), MCF-7
[12] = tested on: platelet aggregation induced by thrombin; experiment: Antiplatelet assay, thrombin-induced aggregation; type: cell-based, rabbit; conditions: for Percent aggregation, thrombin: thrombin 0.1 U/ml
Procedure: as §1, §2

[13] = tested on: platelet aggregation induced by collagen; experiment: Antiplatelet assay, collagen-induced aggregation; type: cell-based, rabbit
Procedure: as §1, §2

[14] = tested on: platelet aggregation induced by platelet-activating factor (PAF); experiment: Antiplatelet assay, PAF-induced aggregation; type: cell-based, rabbit; conditions: for Percent aggregation, PAF: PAF 2 ng/ml
Procedure: as §1, §2

[15] = 37° C., 1 min preincubation, read-out: IC50, platelet aggregation induced by arachidonic acid (in vitro) (Table 6)
[16] = Oryctolagus cuniculus, Platelet, 37° C., 1 min preincubation, read-out: IC50, platelet aggregation induced by arachidonic acid (in vitro) (Table 6)

Compound: 4-Ethoxycarbonylbutoxy-2-phenylquinazoline [Compound 73]
- IC50 [1, 15]: 173 µM

Compound: COc1ccccc1C1NC(=O)c2ccccc2N1 (racemic) [Compound 60, 2,3-Dihydro-2-(2′-methoxyphenyl)-4-quinazolinone]
- IC50 [2]: 14.7 µg/mL (≈ 57.8 µM)
- IC50 [3]: > 20 µg/mL
- inhibition at 20 µg/mL [3]: 30%
- IC50 [4]: > 20 µg/mL
- inhibition at 20 µg/mL [4]: 44%
- IC50 [5]: < 20 µg/mL
- Inhibition value of plateau-dose response (in brackets), SKMEL-2 [5]: 52%
- IC50 [6]: 10.2 µg/mL (≈ 40.1 µM)
- IC50 [7]: > 40 µM
- IC50 [8]: > 20 µg/mL
- inhibition at 20 µg/mL [8]: 32%
- IC50 [9]: > 20 µg/mL
- inhibition at 20 µg/mL [9]: 21%
- IC50 [10]: > 20 µg/mL
- inhibition at 20 µg/mL [10]: 38%
- IC50 [11]: > 20 µg/mL
- inhibition at 20 µg/mL [11]: 48%

Compound: COc1ccc(C2NC(=O)c3ccccc3N2)cc1 (racemic) [Compound 62, 2,3-Dihydro-2-(4′-methoxyphenyl)-4-quinazolinone]
- IC50 [2]: 20 µg/mL (≈ 78.7 µM)
- IC50 [3]: > 20 µg/mL
- inhibition at 20 µg/mL [3]: 14%
- IC50 [4]: > 20 µg/mL
- inhibition at 20 µg/mL [4]: 34%
- IC50 [5]: > 20 µg/mL
- inhibition at 20 µg/mL [5]: 23%
- IC50 [6]: > 20 µg/mL
- inhibition at 20 µg/mL ([6]; read-out: Inhibition at highest test concentration (in brackets), KB-VIN): 39%
- IC50 [7]: > 40 µM
- IC50 [8]: > 20 µg/mL
- inhibition at 20 µg/mL [8]: 14%
- IC50 [9]: > 20 µg/mL
- inhibition at 20 µg/mL [9]: 19%
- IC50 [10]: > 20 µg/mL
- inhibition at 20 µg/mL [10]: 13%
- IC50 [11]: > 20 µg/mL
- inhibition at 20 µg/mL [11]: 44%

Compound: COc1cccc(C2NC(=O)c3ccccc3N2)c1OC (racemic) [Compound 63, 2,3-Dihydro-2-(2′,3′-dimethoxyphenyl)-4-quinazolinone]
- IC50 [2]: 11.4 µg/mL (≈ 40.1 µM)
- IC50 [3]: > 20 µg/mL
- inhibition at 20 µg/mL [3]: 20%
- IC50 [4]: > 20 µg/mL
- inhibition at 20 µg/mL [4]: 39%
- IC50 [5]: < 20 µg/mL
- Inhibition value of plateau-dose response (in brackets), SKMEL-2 [5]: 53%
- IC50 [6]: 8.6 µg/mL (≈ 30.2 µM)
- IC50 [7]: > 40 µM
- IC50 [8]: > 20 µg/mL
- inhibition at 20 µg/mL [8]: 41%
- IC50 [9]: > 20 µg/mL
- inhibition at 20 µg/mL [9]: 39%
- IC50 [10]: > 20 µg/mL
- inhibition at 20 µg/mL [10]: 34%
- IC50 [11]: > 20 µg/mL
- inhibition at 20 µg/mL [11]: 40%

Compound: COc1ccc(C2NC(=O)c3ccccc3N2)c(OC)c1 (racemic) [Compound 64, 2,3-Dihydro-2-(2′,4′-dimethoxyphenyl)-4-quinazolinone]
- IC50 [2]: 12.5 µg/mL (≈ 44 µM)
- IC50 [3]: > 20 µg/mL
- inhibition at 20 µg/mL [3]: 28%
- IC50 [4]: > 20 µg/mL
- inhibition at 20 µg/mL [4]: 43%
- IC50 [5]: > 20 µg/mL
- inhibition at 20 µg/mL [5]: 37%
- IC50 [6]: 7.6 µg/mL (≈ 26.7 µM)
- IC50 [7]: > 40 µM
- IC50 [8]: > 20 µg/mL
- inhibition at 20 µg/mL [8]: 43%
- IC50 [9]: > 20 µg/mL
- inhibition at 20 µg/mL [9]: 29%
- IC50 [10]: > 20 µg/mL
- inhibition at 20 µg/mL [10]: 40%
- IC50 [11]: > 20 µg/mL
- inhibition at 20 µg/mL [11]: 44%

Compound: COc1ccc(C2NC(=O)c3ccccc3N2)cc1OC (racemic) [Compound 66, 2,3-Dihydro-2-(3′,4′-dimethoxyphenyl)-4-quinazolinone]
- IC50 [2]: 14.6 µg/mL (≈ 51.4 µM)
- IC50 [3]: > 20 µg/mL
- inhibition at 20 µg/mL [3]: 30%
- IC50 [4]: > 20 µg/mL
- inhibition at 20 µg/mL [4]: 41%
- IC50 [5]: > 20 µg/mL
- inhibition at 20 µg/mL [5]: 24%
- IC50 [6]: 16 µg/mL (≈ 56.3 µM)
- IC50 [7]: > 40 µM
- IC50 [8]: > 20 µg/mL
- inhibition at 20 µg/mL [8]: 28%
- IC50 [9]: > 20 µg/mL
- inhibition at 20 µg/mL [9]: 25%
- IC50 [10]: > 20 µg/mL
- inhibition at 20 µg/mL [10]: 24%
- IC50 [11]: 20 µg/mL (≈ 70.3 µM)

Compound: CC(=O)Oc1ccccc1C(=O)O [Aspirin]
- IC50 [1, 16]: 20 µM

Compound: COc1nc(-c2ccccc2)nc2ccccc12 [Compound 69, 4-Methoxy-2-phenylquinazoline]
- Inhibition of thrombin-induced platelet aggregation in words ([12]; Table 5): poor inhibitors
- Percent aggregation, thrombin ([12]; compound 20 μg/ml): 88.1 ± 0.8(3) %
- Percent aggregation, thrombin ([12]; compound 50 μg/ml): 13.3 ± 5.3(3) %
- Percent aggregation, thrombin ([12]; compound 100 μg/ml, 37° C., 1 min preincubation): 2.8 ± 2.3(3) %
- IC50 [1, 16]: 7.2 µM
- IC50 ([1]; Oryctolagus cuniculus, Platelet, read-out: IC50, AA-induced platelet aggregation (Table 5)): 7.2 µM
- Inhibition of AA-induced platelet aggregation in words ([1]; Table 5): relatively stronger inhibitors
- Percent aggregation, AA ([1]; compound 0.5 μg/ml): 86.0 ± 1.2(4) %
- Percent aggregation, AA ([1]; compound 1 μg/ml): 65.0 ± 8.1(4) %
- Percent aggregation, AA ([1]; compound 2 μg/ml): 35.3 ± 14.9(4) %
- Percent aggregation, AA ([1]; compound 5 μg/ml): 15.0 ± 11.8(4) %
- Percent aggregation, AA ([1]; compound 10 μg/ml): 0.0 ± 0.0(4) %
- Percent aggregation, AA ([1]; compound 100 μg/ml): 0.0 ± 0.0(4) %
- IC50 ([13]; Oryctolagus cuniculus, Platelet, collagen 10 μg/ml, read-out: IC50, collagen-induced platelet aggregation (Table 5)): 8.47 µM
- Inhibition of collagen-induced platelet aggregation in words ([13]; Table 5): relatively stronger inhibitors
- Percent aggregation, collagen ([13]; compound 0.2 μg/ml, collagen 10 μg/ml): 88.4 ± 1.9(4) %
- Percent aggregation, collagen ([13]; compound 0.5 μg/ml, collagen 10 μg/ml): 76.2 ± 3.7(4) %
- Percent aggregation, collagen ([13]; compound 1 μg/ml, collagen 10 μg/ml): 52.6 ± 7.5(4) %
- Percent aggregation, collagen ([13]; compound 2 μg/ml, collagen 10 μg/ml): 43.0 ± 6.4(4) %
- Percent aggregation, collagen ([13]; compound 5 μg/ml, collagen 10 μg/ml): 31.5 ± 6.4(4) %
- Percent aggregation, collagen ([13]; compound 10 μg/ml, collagen 10 μg/ml): 1.1 ± 0.9(4) %
- Percent aggregation, collagen ([13]; compound 20 μg/ml, collagen 10 μg/ml): 0.0 ± 0.0(4) %
- Percent aggregation, collagen ([13]; compound 100 μg/ml, collagen 10 μg/ml): 0.0 ± 0.0(4) %
- Inhibition of PAF-induced platelet aggregation in words ([14]; Table 5): poor inhibitors
- Percent aggregation, PAF ([14]; compound 20 μg/ml): 87.9 ± 1.8(4) %
- Percent aggregation, PAF ([14]; compound 50 μg/ml): 38.1 ± 8.3(4) %
- Percent aggregation, PAF ([14]; compound 100 μg/ml): 2.1 ± 1.8(4) %

Compound: CCOC(=O)COc1nc(-c2ccccc2)nc2ccccc12 [Compound 71, 4-Ethoxycarbonylmethoxy-2-phenylquinazoline]
- IC50 [1, 16]: 26.9 µM

Compound: CCOC(=O)CCCOc1nc(-c2ccccc2)nc2ccccc12 [Compound 72, 4-Ethoxycarbonylpropoxy-2-phenylquinazoline]
- IC50 [1, 16]: 30.7 µM

Compound: CCOc1nc(-c2ccccc2OC)nc2ccccc12 [Compound 74, 4-Ethoxy-2-(2′-methoxyphenyl)quinazoline]
- IC50 [1, 16]: 214 µM

Compound: CCOc1nc(-c2cccc(OC)c2)nc2ccccc12 [Compound 75, 4-Ethoxy-2-(3′-methoxyphenyl)quinazoline]
- IC50 [1, 16]: 69.3 µM

Compound: CCOc1nc(-c2ccc(OC)cc2)nc2ccccc12 [Compound 76, 4-Ethoxy-2-(4′-methoxyphenyl)quinazoline]
- IC50 [1, 16]: 5.36 µM

Compound: Cn1c(-c2ccccc2)nc2ccccc2c1=O [Compound 77, N^3-methyl-2-phenyl-4-quinazolinone]
- IC50 [1, 16]: 183 µM

Compound: CCn1c(-c2ccccc2)nc2ccccc2c1=O [Compound 78, N^3-Ethyl-2-phenyl-4-quinazolinone]
- IC50 [1, 16]: 184 µM

Compound: COc1ccc2c(c1)c(CC(=O)O)c(C)n2C(=O)c1ccc(Cl)cc1 [Indomethacin]
- IC50 [1, 16]: 0.25 µM

Compound: N^3-Ethoxycarbonylmethoxy-2-phenyl-4-quinazolinone [Compound 79]
- IC50 [1, 15]: > 270 µM
